Experimental data reported in patent US20060264419A1 (priority 2003, published 2006).

biological target: 5-HT2A receptors (Rattus norvegicus, UniProt P14842); experiment: in-vitro affinity to 5-HT2A receptors, displacement of [3H]ketanserine (Example A1); format: binding; settings: read-out: HT2A IC50
Text: The 5-HT2A receptors are exposed both to [^3H]ketanserine (a substance which is known for its affinity to the receptor) and also to the test compound. The decrease in the affinity of [^3H]ketanserine to the receptor is an indication of the affinity of the test substance to the 5-HT2A receptor.

Sequence of 5-HT2A receptors (P14842 whole entry): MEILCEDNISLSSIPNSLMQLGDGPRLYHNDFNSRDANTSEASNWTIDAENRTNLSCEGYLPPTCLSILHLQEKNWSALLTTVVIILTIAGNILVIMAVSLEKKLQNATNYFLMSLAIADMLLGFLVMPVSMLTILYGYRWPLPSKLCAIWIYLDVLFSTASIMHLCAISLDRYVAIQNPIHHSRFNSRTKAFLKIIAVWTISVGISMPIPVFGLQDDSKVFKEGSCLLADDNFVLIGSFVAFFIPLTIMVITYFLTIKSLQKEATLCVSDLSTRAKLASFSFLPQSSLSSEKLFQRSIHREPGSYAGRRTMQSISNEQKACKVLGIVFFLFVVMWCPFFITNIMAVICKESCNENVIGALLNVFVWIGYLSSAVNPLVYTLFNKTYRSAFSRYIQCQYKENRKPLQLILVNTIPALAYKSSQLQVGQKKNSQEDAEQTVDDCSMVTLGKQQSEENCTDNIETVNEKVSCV

| SMILES | IC50 |
| --- | --- |
| Cc1ccccc1-c1c(CN2CCN(C)CC2)cnn1-c1ccc(-c2ccc(F)cc2)cc1 [Example 966, 1-[1-(4′-Fluorobiphenyl-4-yl)-5-o-tolyl-1H-pyrazol-4-ylmethyl]-4-methyl-piperazine] | 0.072 µM |
| CN1CCN(Cc2cnn(-c3ccc(-c4cccc(F)c4F)cc3)c2-c2ccccc2F)CC1 [Example 967, 1-[1-(2′,3′-Difluorobiphenyl-4-yl)-5-(2-fluoro-phenyl)-1H-pyrazol-4-ylmethyl]-4-methyl-piperazine] | 0.073 µM |
| Fc1ccccc1-c1c(CN2CCN(Cc3ccncc3)CC2)cnn1-c1ccc(-c2ccccc2)cc1 [Example 968, 1-[1-Biphenyl-4-yl-5-(2-fluorophenyl)-1H-pyrazol-4-ylmethyl]-4-pyridin-4-ylmethylpiperazine] | 0.075 µM |
| CN(C)Cc1ccccc1-c1ccc(-n2ncc(CN3CCN(C)CC3)c2-c2ccccc2F)cc1 [Example 970, {4′-[5-(2-Fluorophenyl)-4-(4-methyl-piperazin-1-ylmethyl)pyrazol-1-yl]biphenyl-2-ylmethyl}-dimethylamine] | 0.081 µM |
| CN1CCN(Cc2cnn(-c3ccc(-c4ccc(F)cc4)cc3)c2-c2cnccn2)CC1 [Example 972, 2-[2-(4′-Fluorobiphenyl-4-yl)-4-(4-methyl-piperazin-1-ylmethyl)-2H-pyrazol-3-yl]-pyrazine] | 0.085 µM |
| CN1CCN(Cc2cnn(-c3ccc(-c4cc(Cl)cc(Cl)c4)cc3)c2-c2ccccc2F)CC1 [Example 973, 1-[1-(3′,5′-Dichlorobiphenyl-4-yl)-5-(2-fluoro-phenyl)-1H-pyrazol-4-ylmethyl]-4-methyl-piperazine] | 0.086 µM |
| CN1CCN(NCc2cnn(-c3ccc(-c4ccc(F)cc4)cc3)c2-c2ccccc2)CC1 [Example 974, [1-(4′-Fluorobiphenyl-4-yl)-5-phenyl-1H-pyrazol-4-ylmethyl]-(4-methyl-piperazin-1-yl)amine] | 0.087 µM |
| Cc1nn(-c2ccccc2)c(C)c1CN1CCN(C(=O)CC(C)C(=O)O)CC1 (centres unmarked) [Example 978] | 0.1 µM |
| CC1CN(Cc2cnn(-c3ccc(-c4ccccc4)cc3)c2-c2ccccc2F)CC(C)N1 (centres unmarked) [Example 979, 1-[1-Biphenyl-4-yl-5-(2-fluorophenyl)-1H-pyrazol-4-ylmethyl]-3,5-dimethylpiperazine] | 0.1 µM |
| O=C(CNCc1cnn(-c2ccc(-c3ccccc3)cc2)c1-c1ccccc1F)Nc1ccc([N+](=O)[O-])cc1 [Example 980, 2-{[1-Biphenyl-4-yl-5-(2-fluorophenyl)-1H-pyrazol-4-ylmethyl]amino}-N-(4-nitrophenyl)-acetamide] | 0.1 µM |
| Fc1ccc(-c2ccc(-n3ncc(CN(Cc4cnn(-c5ccc(-c6ccc(F)cc6)cc5)c4-c4ccco4)C4CC4)c3-c3ccco3)cc2)cc1 [Example 982, Cyclopropylbis-[1-(4′-fluorobiphenyl-4-yl)-5-furan-2-yl-1H-pyrazol-4-ylmethyl]amine] | 0.11 µM |
| CN1CCN(Cc2cnn(-c3ccc(-c4ccccc4Cl)cc3)c2-c2ccccc2F)CC1 [Example 984, 1-[1-(2′-Chlorobiphenyl-4-yl)-5-(2-fluoro-phenyl)-1H-pyrazol-4-ylmethyl]-4-methyl-piperazine] | 0.12 µM |
| O=C(CN1CCN(Cc2cnn(-c3ccc(-c4ccccc4)cc3)c2-c2ccccc2F)CC1)N1CCCC1 [Example 985, 2-{4-[1-Biphenyl-4-yl-5-(2-fluoro-phenyl)-1H-pyrazol-4-ylmethyl]piperazin-1-yl}-1-pyrrolidin-1-ylethanone] | 0.122 µM |
| CC1CCN(Cc2cnn(-c3ccc(-c4ccccc4)cc3)c2-c2ccccc2F)CC1 [Example 986, 1-[1-Biphenyl-4-yl-5-(2-fluorophenyl)-1H-pyrazol-4-ylmethyl]-4-methylpiperidine] | 0.13 µM |
| N#CC(NCc1cnn(-c2ccc(-c3ccccc3)cc2)c1-c1ccccc1F)C(N)=O (centres unmarked) [Example 987, 2-{[1-Biphenyl-4-yl-5-(2-fluorophenyl)-1H-pyrazol-4-ylmethyl]amino}-2-cyanoacetamide] | 0.13 µM |
| CC(=O)Nc1cccc(-c2ccc(-n3ncc(CN4CCN(C)CC4)c3-c3ccccc3F)cc2)c1 [Example 988, N-{4′-[5-(2-Fluorophenyl)-4-(4-methyl-piperazin-1-ylmethyl)pyrazol-1-yl]biphenyl-3-yl}acetamide] | 0.13 µM |
| CN1CCN(Cc2cnn(-c3ccc(Br)cc3)c2-c2ccccc2F)CC1 [Example 989, 1-[1-(4-Bromophenyl)-5-(2-fluoro-phenyl)-1H-pyrazol-4-ylmethyl]-4-methylpiperazine] | 0.13 µM |
| Fc1ccccc1-c1c(CNC2CN3CCC2CC3)cnn1-c1ccc(-c2ccccc2)cc1 (centres unmarked) [Example 991, (1-Azabicyclo[2.2.2]oct-3-yl)-[1-biphenyl-4-yl-5-(2-fluorophenyl)-1H-pyrazol-4-ylmethyl]-amine] | 0.14 µM |
| OCc1cnn(-c2ccc(-c3ccc(F)cc3)cc2)c1-c1cccc(Cl)c1 [Example 992, [5-(3-Chlorophenyl)-1-(4′-fluoro-biphenyl-4-yl)-1H-pyrazol-4-yl]methanol] | 0.14 µM |

| SMILES | IC50 |
| --- | --- |
| CN1CCN(Cc2cnn(-c3ccc(-c4cccc(C#N)c4)cc3)c2-c2ccccc2F)CC1 [Example 993, 4′-[5-(2-Fluorophenyl)-4-(4-methylpiperazin-1-ylmethyl)pyrazol-1-yl]biphenyl-3-carbonitrile] | 0.14 µM |
| Cc1ccc(-c2c(CN3CCN(C)CC3)cnn2-c2ccc(-c3ccc(F)cc3)cc2)cc1 [Example 994, 1-[1-(4′-Fluorobiphenyl-4-yl)-5-p-tolyl-1H-pyrazol-4-ylmethyl]-4-methylpiperazine] | 0.14 µM |
| CN1CCC(N(C)Cc2cnn(-c3ccc(-c4ccccc4)cc3)c2-c2ccccc2F)CC1 [Example 995, [1-Biphenyl-4-yl-5-(2-fluorophenyl)-1H-pyrazol-4-ylmethyl]methyl-(1-methylpiperidin-4-yl)amine] | 0.16 µM |
| Fc1ccccc1-c1c(CN2CC3CC2CO3)cnn1-c1ccc(-c2ccccc2)cc1 (centres unmarked) [Example 996, 5-[1-Biphenyl-4-yl-5-(2-fluorophenyl)-1H-pyrazol-4-ylmethyl]-2-oxa-5-azabicyclo-[2.2.1]heptane] | 0.16 µM |
| Fc1ccccc1-c1c(CN2CC=CCC2)cnn1-c1ccc(-c2ccccc2)cc1 [Example 998, 1-[1-Biphenyl-4-yl-5-(2-fluorophenyl)-1H-pyrazol-4-ylmethyl]-1,2,3,6-tetrahydro-pyridine] | 0.17 µM |
| CCOC(=O)N1CCC(N(C)Cc2cnn(-c3ccc(-c4ccccc4)cc3)c2-c2ccccc2F)CC1 [Example 999, Ethyl 4-{[1-biphenyl-4-yl-5-(2-fluorophenyl)-1H-pyrazol-4-ylmethyl]methylamino}piperidine-1-carboxylate] | 0.17 µM |
| CN1CCN(Cc2cnn(-c3ccc(-c4cccnc4)cc3)c2-c2ccccc2F)CC1 [Example 1000, 1-[5-(2-Fluorophenyl)-1-(4-pyridin-3-ylphenyl)-1H-pyrazol-4-ylmethyl]-4-methylpiperazine] | 0.17 µM |
| Fc1ccccc1-c1c(CNCCCn2ccnc2)cnn1-c1ccc(-c2ccccc2)cc1 [Example 1001, [1-Biphenyl-4-yl-5-(2-fluorophenyl)-1H-pyrazol-4-ylmethyl]-(3-imidazol-1-ylpropyl)amine] | 0.17 µM |
| Fc1ccccc1-c1c(CNCCc2c[nH]cn2)cnn1-c1ccc(-c2ccccc2)cc1 [Example 1002, [1-Biphenyl-4-yl-5-(2-fluorophenyl)-1H-pyrazol-4-ylmethyl]-[2-(1H-imidazol-4-yl)-ethyl]amine] | 0.17 µM |
| Fc1ccccc1-c1c(CNCc2cccnc2)cnn1-c1ccc(-c2ccccc2)cc1 [Example 1004, [1-Biphenyl-4-yl-5-(2-fluorophenyl)-1H-pyrazol-4-ylmethyl]pyridin-3-ylmethylamine] | 0.18 µM |
| Fc1ccc(F)c(-c2ccc(-n3ncc(CNc4cc[nH]n4)c3-c3ccccc3F)cc2)c1 [Example 1005, [1-(2′,5′-Difluorobiphenyl-4-yl)-5-(2-fluoro-phenyl)-1H-pyrazol-4-ylmethyl]-(1H-pyrazol-3-yl)amine] | 0.18 µM |
| Nc1ccncc1NCc1cnn(-c2ccc(-c3ccccc3)cc2)c1-c1ccccc1F [Example 1006, N3-[1-Biphenyl-4-yl-5-(2-fluoro-phenyl)-1H-pyrazol-4-ylmethyl]pyridine-3,4-diamine] | 0.18 µM |
| CN1CCN(Cc2cnn(-c3ccc(-c4ccc(F)cc4)cc3)c2-c2ccc(Cl)c(Cl)c2)CC1 [Example 1007, 1-[5-(3,4-Dichlorophenyl)-1-(4′-fluoro-biphenyl-4-yl)-1H-pyrazol-4-ylmethyl]-4-methyl-piperazine] | 0.19 µM |
| CN(C)C1CCN(Cc2cnn(-c3ccc(-c4ccccc4)cc3)c2-c2ccccc2F)CC1 [Example 1008, {1-[1-Biphenyl-4-yl-5-(2-fluorophenyl)-1H-pyrazol-4-ylmethyl]piperidin-4-yl}dimethyl-amine] | 0.2 µM |
| c1ccc(-c2ccc(-n3ncc(CN4CCNCC4)c3-c3ccccn3)cc2)cc1 [Example 1009, 1-(1-Biphenyl-4-yl-5-pyridin-2-yl-1H-pyrazol-4-ylmethyl)piperazine] | 0.2 µM |
| CN(C)C(=O)CNCc1cnn(-c2ccc(-c3ccccc3)cc2)c1-c1ccccc1F [Example 1010, 2-{[1-Biphenyl-4-yl-5-(2-fluorophenyl)-1H-pyrazol-4-ylmethyl]amino}-N,N-dimethyl-acetamide] | 0.2 µM |
| CCN1CCN(Cc2cnn(-c3ccc(-c4ccc(F)cc4)cc3)c2-c2ccc(OC)cc2)CC1 [Example 1011, 1-Ethyl-4-[1-(4′-fluorobiphenyl-4-yl)-5-(4-methoxyphenyl)-1H-pyrazol-4-ylmethyl]-piperazine] | 0.2 µM |
| O=c1ccccn1Cc1cnn(-c2ccc(-c3ccccc3)cc2)c1-c1ccccc1F [Example 1012, 1-[1-Biphenyl-4-yl-5-(2-fluorophenyl)-1H-pyrazol-4-ylmethyl]-1H-pyridin-2-one] | 0.2 µM |
| COC(=O)CCNCc1cnn(-c2ccc(-c3ccccc3)cc2)c1-c1ccccc1F [Example 1014, Methyl 3-{[1-biphenyl-4-yl-5-(2-fluoro-phenyl)-1H-pyrazol-4-ylmethyl]amino}propionate] | 0.21 µM |
